Assay results taken from ChEMBL document CHEMBL1145709, “Seven New Polyacetylene Derivatives, Showing Both Potent Metamorphosis-Inducing Activity in Ascidian Larvae and Antifouling Activity Against Barnacle Larvae, from the Marine Sponge Callyspongia truncata” (1997).
Values after ≈ are worked out from the molar mass of the structure shown.

Legend:
Amphibalanus amphitrite = assay: Antifouling activity against Balanus amphitrite larvae; assay type: functional; conditions: for EC50: Amphibalanus amphitrite, read-out: ED50 (the source's name)
Halocynthia roretzi = assay: Induction of metamorphosis in ascidian Halocynthia roretzi; assay type: functional; conditions: for EC50: Halocynthia roretzi, read-out: ED50 (the source's name)

Row | EC50 (Halocynthia roretzi) | Structure (SMILES) | EC50 (Amphibalanus amphitrite) | ED100 (Amphibalanus amphitrite) | ED100 (Halocynthia roretzi)
1 |  | C#CC#CCCCC#CC#C/C=C\CCCC/C=C\C#C [CALLYPENTAYNE] | 0.25 mg/L (≈ 0.918 µM) |  | 
2 | 3.9 mg/L | C#C/C=C\CCCC/C=C\C#CC#CCCCC#CC#C[C@H](COS(=O)(=O)[O-])OS(=O)(=O)[O-].[Na+].[Na+] [CALLYSPONGIN A] | 0.13 mg/L |  | 
3 |  | C#C/C=C\CCCC/C=C\C#CC#CCCCC#CC#C[C@@H](O)COS(=O)(=O)[O-].[Na+] [CALLYSPONGIN B] |  | 0.25 µg/mL | 4.1 µg/mL
4 | 30 mg/L (≈ 109 µM) | C#C/C=C\CCCC#CC#CCCCCCC/C=C\C#C [CALLYTETRAYNE] | 0.25 mg/L (≈ 0.904 µM) |  | 
5 | 0.43 mg/L (≈ 1.23 µM) | C#C/C=C\CCCC/C=C\C#CC#CC(O)CCC#CC#CC(O)CO (centres undefined) [CALLYTRIOL A] | 1.3 mg/L (≈ 3.73 µM) |  | 
6 | 0.63 mg/L (≈ 1.81 µM) | C#C/C=C\CCCC(O)/C=C\C#CC#CCCCC#CC#CC(O)CO (centres undefined) [CALLYTRIOL B] | 1.3 mg/L (≈ 3.73 µM) |  | 
7 | 0.24 mg/L (≈ 0.689 µM) | C#C/C=C\C(O)CCC/C=C\C#CC#CCCCC#CC#CC(O)CO (centres undefined) [CALLYTRIOL C] | 0.13 mg/L (≈ 0.373 µM) |  | 
8 | 0.38 mg/L (≈ 1.09 µM) | C#C/C=C/C(O)CCC/C=C\C#CC#CCCCC#CC#CC(O)CO (centres undefined) [CALLYTRIOL D] | 1.3 mg/L (≈ 3.73 µM) |  | 
9 | 0.63 mg/L (≈ 1.81 µM) | C#C/C=C\CCCC(O)/C=C/C#CC#CCCCC#CC#CC(O)CO (centres undefined) [CALLYTRIOL E] | 0.13 mg/L (≈ 0.373 µM) |  | 
10 | 4.5 mg/L (≈ 13.5 µM) | C#C/C=C\CCCC/C=C\C#CC#CCCCC#CC#C[C@@H](O)CO [SIPHONODIOL] | 0.25 mg/L (≈ 0.752 µM) |  | 
